Test results reported in patent US20080253960A1, “Lipoprotein-Based Nanoplatforms” (The Trustees of the University of Pennsylvania Center for …, priority 2004, published 2008).

What was measured:
HepG2 tumor cells [1] = assay: laser scanning confocal microscopy of r-(Pyro-CE)-LDL uptake; type: cell-based, human; details: 20 μg/mL r-(Pyro-CE)-LDL, or same amount of Pyro-CE without reconstitution into LDL
Description: To visualize LDLR-mediated internalization of these NIRF/PDT agents into tumor cells, we performed laser scanning confocal microscopy studies on r-(Pyro-CE)-LDL in HepG2 tumor cells. Four sets of experiments were performed on a Leica TCS SPII laser scanning confocal microscope (Heidelberg, Germany). […] In a control experiment, HepG2 cells were incubated with native LDL but without the photosensitizer at 37° C. for 3 h to determine any possible background fluorescence. […] To determine the specificity of this LDL based photosensitizer toward LDL receptors, HepG2 cells were incubated with either a 25-fold excess of unlabeled LDL in addition to the 20 μg/mL r-(Pyro-CE)-LDL or with the same amount of Pyro-CE but without reconstitution of this agent into LDL.

HepG2 tumor cells [2] = assay: confocal microscopy of LDLR-specific uptake of r-SiPcBOA-LDL; type: cell-based, human; details: same amount of dye alone as in r-SiPcBOA-LDL
Description: Confocal Microscopy Studies: For confocal microscopy studies, HepG2 cells were grown in 4-well Lab-Tek chamber slides (Naperville, Ill.) at a density of 40,000 cells/well. Experiments were started, after two quick washes with pre-incubation medium (medium with 0.8% (w/v) BSA instead of FBS), by the addition of pre-incubation medium containing the indicated amounts of r-SiPcBOA-LDL/AcLDL and/or unlabeled LDL. After a 4 h incubation at 37° C., the cells were washed three times with ice-cold PBS and fixed for 15 minutes with 3% formaldehyde in PBS at room temperature. Then the chamber slides were mounted and sealed for confocal microscopy analysis. Confocal microscopy was performed with a Leica TCS SPII laser scanning confocal microscope (Heidelberg, Germany). Filter settings were 633 nm for excitation and 638-800 nm for emission. Confocal Microscopy Studies of the LDLR-Specific Uptake: To visualize LDLR-mediated internalization of r-SiPcBOA-LDL, we performed laser scanning confocal microscopy studies on HepG2 tumor cells. […] To determine the specificity of this r-SiPcBOA-LDL toward LDLR, three sets of control experiments were performed.

Substance	fluorescence signal (confocal) (HepG2 tumor cells [1])	fluorescence signal (confocal) (HepG2 tumor cells [2])
pyropheophorbide cholesterol oleate [Pyro-CE]	No fluorescence	
tetra-t-butyl silicon phthalocyanine bisoleate [(tBu)4SiPcBOA]		did not lead to any observable fluorescence
